Measured values from patent US20200231638A1, “STABILIZED ANTI-MICROBIAL PEPTIDES” (priority 2015, published 2020).
Bridge positions count the residues as written; N and C are the ends. Square brackets hold non-standard residues; d marks the D form. Peptide text beside a SMILES is read from it. R8 = C=CCCCCCC[C@@](C)(N)C(=O)O; S5 = C=CCCC[C@](C)(N)C(=O)O; Nle = CCCC[C@H](N)C(=O)O

Tests used:
E. coli = type: cell-based, Escherichia coli
How it was run: (§1)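 Microdilution MIC test in polyanion-depleted MHB, with a final inoculum of 5×10^5 CFU/ml and 20-24 h incubation at 37° C.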

B. cereus = type: cell-based, Bacillus cereus
How it was run: as §1

S. aureus = type: cell-based, Staphylococcus aureus
How it was run: as §1

P. aeruginosa = type: cell-based, Pseudomonas aeruginosa
How it was run: as §1

human red blood cells = type: cell-based; conditions: red cells of human, 1 h, 25
How it was run: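 Hemolysis expressed as absorbance of released hemoglobin (570 nm) normalized between untreated and 1% Triton-X100 controls, with MHC taken as peptide concentration giving under 1% release. Peptide dilutions were exposed for 1 h at 37° C to a 1% (v/v) suspension of washed human red cells in PBS.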

| SMILES | MIC E. coli (E. coli) [µg/mL] | MIC B. cereus (B. cereus) [µg/mL] | MIC S. aureus (S. aureus) [µg/mL] | MIC P. aeruginosa (P. aeruginosa) [µg/mL] | % Hemolysis at 25 μg/ml (human red blood cells) [%] |
| --- | --- | --- | --- | --- | --- |
| CCCC[C@H](NC(=O)[C@]1(C)CCCC=CCCC[C@](C)(NC(=O)[C@H](C)NC(=O)[C@H](CCCCN)NC(=O)CNC(=O)[C@H](Cc2ccccc2)NC(=O)[C@H](CCCCN)NC(=O)[C@H](CCCCN)NC(=O)[C@H](C)NC(=O)[C@H](CO)NC(=O)[C@H](Cc2c[nH]cn2)NC(=O)[C@H](CC(C)C)NC(=O)[C@H](Cc2ccccc2)NC(=O)[C@H](CCCCN)NC(=O)CNC(=O)[C@@H](NC(=O)CN)[C@@H](C)CC)C(=O)N[C@@H](CCCCN)C(=O)NCC(=O)N[C@@H](CCC(=O)O)C(=O)N1)C(=O)N[C@@H](CC(N)=O)C(=O)N[C@@H](CO)C(N)=O [Mag(i + 4)15(V17K), GIGKFLHSAKKFGKAXKGEXBNS] (H-GIGKFLHSAKKFGKA[S5]KGE[S5][Nle]NS-NH2; staple 16-20) | 3.1 | 50 | >50 | 12.5 | 2.2 |
| CCCC[C@H](NC(=O)[C@]1(C)CCCC=CCCC[C@](C)(NC(=O)[C@H](C)NC(=O)[C@H](CCCCN)NC(=O)CNC(=O)[C@H](Cc2ccccc2)NC(=O)[C@H](CCCCN)NC(=O)[C@H](CCCCN)NC(=O)[C@H](Cc2c[nH]cn2)NC(=O)[C@H](CO)NC(=O)[C@]2(C)CCCC=CCCC[C@](C)(NC(=O)[C@H](CCCCN)NC(=O)CN)C(=O)N[C@@H](CCCCN)C(=O)N[C@@H](Cc3ccccc3)C(=O)N[C@@H](CC(C)C)C(=O)N2)C(=O)N[C@@H](C(C)C)C(=O)N[C@@H](Cc2c[nH]cn2)C(=O)N[C@@H](CCC(=O)O)C(=O)N1)C(=O)N[C@@H](CCC(=O)O)C(=O)N[C@@H](CO)C(N)=O [Mag(i + 4)2, 15(I2X, A9H, G18H, N21E)] (H-GK[S5]KFL[S5]SHKKFGKA[S5]VHE[S5][Nle]ES-NH2; staple 3-7, 16-20) | 3.1 | 6.2 | 25 | 6.2 | 4.0 |
| CCCC[C@H](NC(=O)[C@]1(C)CCCC=CCCCCCC[C@@](C)(NC(=O)[C@H](Cc2ccccc2)NC(=O)[C@H](CCCCN)NC(=O)[C@H](CCCCN)NC(=O)[C@H](C)NC(=O)[C@H](CO)NC(=O)[C@H](Cc2c[nH]cn2)NC(=O)[C@H](CC(C)C)NC(=O)[C@H](Cc2ccccc2)NC(=O)[C@H](CCCCN)NC(=O)CNC(=O)[C@@H](NC(=O)CN)[C@@H](C)CC)C(=O)N[C@@H](CCCCN)C(=O)N[C@@H](C)C(=O)N[C@@H](Cc2ccccc2)C(=O)N[C@@H](C(C)C)C(=O)NCC(=O)N[C@@H](CCC(=O)O)C(=O)N1)C(=O)N[C@@H](CC(N)=O)C(=O)N[C@@H](CO)C(N)=O [Mag(i + 7)12] (H-GIGKFLHSAKKF[R8]KAFVGE[S5][Nle]NS-NH2; staple 13-20 (inferred); N-terminus and C-terminus assumed) | 1.6 | 3.1 | 12.5 | 3.1 | 80.3 |
| CCCC[C@H](NC(=O)[C@]1(C)CCCC=CCCC[C@](C)(NC(=O)[C@H](C)NC(=O)[C@H](CCCCN)NC(=O)CNC(=O)[C@H](Cc2ccccc2)NC(=O)[C@H](CCCCN)NC(=O)[C@H](CCCCN)NC(=O)[C@H](C)NC(=O)[C@H](Cc2c[nH]cn2)NC(=O)[C@H](Cc2c[nH]cn2)NC(=O)[C@H](CC(C)C)NC(=O)[C@H](Cc2ccccc2)NC(=O)[C@H](CCCCN)NC(=O)CNC(=O)[C@@H](NC(=O)CN)[C@@H](C)CC)C(=O)N[C@@H](C(C)C)C(=O)NCC(=O)N[C@@H](CCC(=O)O)C(=O)N1)C(=O)N[C@@H](CC(N)=O)C(=O)N[C@@H](CO)C(N)=O [Mag(i + 4)15(S8H), GIGKFLHHAKKFGKAXVGEXBNS] (H-GIGKFLHHAKKFGKA[S5]VGE[S5][Nle]NS-NH2; staple 16-20) | 1.6 | 3.1 | 3.1 | 3.1 | 8.7 |
| CCCC[C@H](NC(=O)[C@]1(C)CCCC=CCCC[C@](C)(NC(=O)[C@H](Cc2c[nH]cn2)NC(=O)[C@H](CCCCN)NC(=O)CNC(=O)[C@H](Cc2ccccc2)NC(=O)[C@H](CCCCN)NC(=O)[C@H](CCCCN)NC(=O)[C@H](C)NC(=O)[C@H](CO)NC(=O)[C@H](Cc2c[nH]cn2)NC(=O)[C@H](CC(C)C)NC(=O)[C@H](Cc2ccccc2)NC(=O)[C@H](CCCCN)NC(=O)CNC(=O)[C@@H](NC(=O)CN)[C@@H](C)CC)C(=O)N[C@@H](C(C)C)C(=O)NCC(=O)N[C@@H](CCC(=O)O)C(=O)N1)C(=O)N[C@@H](CC(N)=O)C(=O)N[C@@H](CO)C(N)=O [Mag(i + 4)15(A15H), GIGKFLHSAKKFGKHXVGEXBNS] (H-GIGKFLHSAKKFGKH[S5]VGE[S5][Nle]NS-NH2; staple 16-20) | 3.1 | 6.2 | 12.5 | 12.5 | 4.7 |
| CCCC[C@H](NC(=O)[C@@H](NC(=O)[C@H](CCC(=O)O)NC(=O)CNC(=O)[C@@H](NC(=O)[C@H](Cc1ccccc1)NC(=O)[C@H](C)NC(=O)[C@H](CCCCN)NC(=O)CNC(=O)[C@H](Cc1ccccc1)NC(=O)[C@H](CCCCN)NC(=O)[C@H](CCCCN)NC(=O)[C@]1(C)CCCC=CCCC[C@](C)(NC(=O)[C@H](CCCCN)NC(=O)CNC(=O)[C@@H](NC(=O)CN)[C@@H](C)CC)C(=O)N[C@@H](CC(C)C)C(=O)N[C@@H](Cc2c[nH]cn2)C(=O)N[C@@H](CO)C(=O)N1)C(C)C)[C@@H](C)CC)C(=O)N[C@@H](CC(N)=O)C(=O)N[C@@H](CO)C(N)=O [Mag(i + 4)4] (H-GIGK[S5]LHS[S5]KKFGKAFVGEI[Nle]NS-NH2; staple 5-9) | 3.1 | 6.2 | 25 | 12.5 | 17.8 |
| CCCC[C@H](NC(=O)[C@]1(C)CCCC=CCCC[C@](C)(NC(=O)[C@H](C)NC(=O)[C@H](CCCCN)NC(=O)CNC(=O)[C@H](Cc2ccccc2)NC(=O)[C@H](CCC(=O)O)NC(=O)[C@H](CCCCN)NC(=O)[C@H](C)NC(=O)[C@H](CO)NC(=O)[C@H](Cc2c[nH]cn2)NC(=O)[C@H](CC(C)C)NC(=O)[C@H](Cc2ccccc2)NC(=O)[C@H](CCCCN)NC(=O)CNC(=O)[C@@H](NC(=O)CN)[C@@H](C)CC)C(=O)N[C@@H](C(C)C)C(=O)NCC(=O)N[C@@H](CCC(=O)O)C(=O)N1)C(=O)N[C@@H](CC(N)=O)C(=O)N[C@@H](CO)C(N)=O [Mag(i + 4)15(K11E), GIGKFLHSAKEFGKAXVGEXBNS] (H-GIGKFLHSAKEFGKA[S5]VGE[S5][Nle]NS-NH2; staple 16-20) | 6.2 | 12.5 | 50 | >50 | 2.9 |
